Measurements reported in patent publication US20250041327A1, “COMPOSITIONS FOR PREVENTING OR FOR REDUCING RISK OF […] INFECTIOUS DISEASES” (priority 2021, published 2025).

Tests used:
VCAM-1 = format: cell-based, human; conditions: infected A549 cells, 1×10^5 pfu virus; BXA 250 nM
E-cadherin = format: cell-based, human; conditions: A549 cells, EPS pre-treatment study; BXA 250 nM; viral-infection vs non-viral infection group
E-selectin = format: cell-based, human; conditions: infected A549 cells, 1×10^5 pfu virus; BXA 250 nM
ZO-1 = format: cell-based, human; conditions: A549 cells, EPS pre-treatment study; BXA 250 nM; viral-infection vs non-viral infection group
claudin-1 = format: cell-based, human; conditions: A549 cells, EPS pre-treatment study; BXA 250 nM; viral-infection vs non-viral infection group
PAF-r = format: cell-based, human; conditions: infected A549 cells, 1×10^5 pfu virus; BXA 250 nM
ICAM-1 = format: cell-based, human; conditions: infected A549 cells, 1×10^5 pfu virus; BXA 250 nM
[1] = tested on: S. aureus strain ATCC 29213; format: cell-based; conditions: 1×10^5 pfu virus, 1×10^5 cfu S. aureus for 1 hour; 400 μg EPS or 250 nM BXA per well; compared with virus-infected cells without treatment
fibronectin = format: cell-based, human; conditions: infected A549 cells, 1×10^5 pfu virus; BXA 250 nM
occludin = format: cell-based, human; conditions: A549 cells, EPS pre-treatment study; BXA 250 nM; viral-infection vs non-viral infection group
CEACAM-1 = CEACAM-1 mRNA expression in virus-infected A549 cells (quantitative RT-PCR); conditions: 1×10^5 pfu virus, 1 hour with EPS then 6 hours, BXA 250 nM, compared with virus-infected cells

O=C1c2c(O)c(=O)ccn2N([C@@H]2c3ccccc3SCc3c2ccc(F)c3F)[C@@H]2COCCN12 [BXA, baloxavir acid]
VCAM-1 mRNA expression (VCAM-1): not changed | E-cadherin mRNA expression (E-cadherin): no difference | E-selectin mRNA expression (E-selectin): not changed | ZO-1 mRNA expression (ZO-1): no difference | claudin-1 mRNA expression (claudin-1): no difference | PAF-r mRNA expression (PAF-r): not changed | ICAM-1 mRNA expression (ICAM-1): not changed | numbers of adhered bacteria on virus-infected A549 cells [1]: did not decrease | fibronectin mRNA expression (fibronectin): not changed | occludin mRNA expression (occludin): no difference | CEACAM-1 mRNA expression increased by influenza virus infection (CEACAM-1): significantly reduced
